The record followed here is US20250186541A1, “DLL3 TARGETING PEPTIDES AND CONSTRUCTS THEREOF” (MARIANA ONCOLOGY INC., priority 2023, published 2025).

Numbered stars: 1 amine (or outer) side, 2 acyl side, 3 side chain; on linkers, the order of the positions; unused ones are H or OH. Bridge positions count the residues as written; N and C are the ends. Square brackets hold non-standard residues; d marks the D form. Peptide text beside a SMILES is read from it. * marks the point of attachment. Ala(piperidin-4-yl) = O=C([C@H](CC1CCN([*:3])CC1)N[*:1])[*:2]; DOTA = O=C(O)CN1CCN(CC(=O)O)CCN(CC(=O)*)CCN(CC(=O)O)CC1; Trp(7-Me) = Cc1cccc2c(C[C@H](N)C(=O)O)c[nH]c12; Phe(4-CH2NH2) = NCc1ccc(C[C@H](N)C(=O)O)cc1; 1Nal = N[C@@H](Cc1cccc2ccccc12)C(=O)O; 2Nal = N[C@@H](Cc1ccc2ccccc2c1)C(=O)O; NMetBuAla = CN[C@@H](CC(C)(C)C)C(=O)O; NMeChg = CN[C@H](C(=O)O)C1CCCCC1; tBuAla = CC(C)(C)C[C@H](N)C(=O)O; αMeD = C[C@](N)(CC(=O)O)C(=O)O; AllylGly = C=CC[C@H](N)C(=O)O; Chg = N[C@H](C(=O)O)C1CCCCC1; αMeP = C[C@@]1(C(=O)O)CCCN1; NMeS = CN[C@@H](CO)C(=O)O Where only a bound is given, the exact number is not on record here.

The target of the experiment is T1, human DLL3 (Homo sapiens, UniProt Q9NYJ7).
T1 construct: biotin (biotinylated)
T1 sequence (Q9NYJ7 27-618): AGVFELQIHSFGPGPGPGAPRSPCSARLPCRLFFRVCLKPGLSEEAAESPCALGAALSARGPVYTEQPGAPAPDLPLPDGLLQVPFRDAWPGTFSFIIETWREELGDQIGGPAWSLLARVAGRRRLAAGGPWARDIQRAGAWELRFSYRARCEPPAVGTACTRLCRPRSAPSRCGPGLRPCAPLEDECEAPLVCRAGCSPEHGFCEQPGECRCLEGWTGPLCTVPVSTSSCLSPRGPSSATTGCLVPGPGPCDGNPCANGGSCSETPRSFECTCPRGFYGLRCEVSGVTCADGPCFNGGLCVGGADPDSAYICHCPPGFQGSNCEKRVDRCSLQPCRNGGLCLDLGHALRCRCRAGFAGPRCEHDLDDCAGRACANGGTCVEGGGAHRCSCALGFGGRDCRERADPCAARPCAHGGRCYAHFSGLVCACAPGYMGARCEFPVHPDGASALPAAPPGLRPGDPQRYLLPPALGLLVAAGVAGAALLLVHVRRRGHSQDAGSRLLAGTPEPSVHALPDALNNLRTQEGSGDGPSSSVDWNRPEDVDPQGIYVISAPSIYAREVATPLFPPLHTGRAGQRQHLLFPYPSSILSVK
Put plainly: Affinity determination by Surface Plasmon Resonance (SPR), Biacore, 1:1 binding model. Conditions: biotinylated human DLL3 on streptavidin chip, 25° C.; NB = nonbinding. Put shortly:
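SPR with biotinylated human DLL3 captured on a streptavidin chip, with a reference surface subtracted. Samples were injected at several concentrations at 100 μL/min in phosphate buffer with 137 mM NaCl, 2.7 mM KCl, 0.05% P20 and 2% DMSO. Kinetic and affinity constants came from a 1:1 binding fit.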

By Kd is commonly meant the constant that tells how readily two partners part at equilibrium. Read a high Kd as weaker binding. For `CC(=O)N[C@H](C(=O)N[C@@H](CO)C(=O)N[C@@H](CC(=O)O)C(=O)N[C@H]1CSSC[C@@H](C(=O)N2CCC[C@@]2(C)C(=O)N[C@@H](Cc2ccccc2)C(=O)N[C@@H](CC(=O)O)C(=O)N[C@H](CCCCNC(=O)CN2CCN(CC(=O)O)CCN(CC(=O)O)CCN(CC(=O)O)CC2)C(N)=O)NC(=O)[C@H](CC(N)=O)NC(=O)[C@H](Cc2ccc3ccccc3c2)NC(=O)[C@H](CC2CCNCC2)NC(=O)[C@H](C2CCCCC2)N(C)C(=O)[C@H](Cc2cccc3ccccc23)NC1=O)C1CCCCC1` [compound 183, Ac-Chg-S-D-C(3)-(1Nal)-(NMe-Chg)-[3-(4-piperidinyl)-Ala]-(2Nal)-N-C(3)-(aMe-P)-F -D-[D-Lys(DOTA)]-NH2] (Ac-[Chg]SDC[1Nal][NMeChg][Ala(piperidin-4-yl)][2Nal]NC[αMeP]FD[dK](DOTA)-NH2; disulfide 4-10), the Kd was > 30 nM. Still for that read-out and setting: next, `CC(=O)N[C@H](C(=O)N[C@@H](CO)C(=O)N[C@@H](CC(=O)O)C(=O)N[C@H]1CSSC[C@@H](C(=O)N2CCC[C@@]2(C)C(=O)N[C@@H](Cc2ccccc2)C(=O)N[C@@H](CC(=O)O)C(=O)N[C@H](CCCCNC(=O)CN2CCN(CC(=O)O)CCN(CC(=O)O)CCN(CC(=O)O)CC2)C(N)=O)NC(=O)[C@H](CC(N)=O)NC(=O)[C@H](Cc2c[nH]c3c(C)cccc23)NC(=O)[C@H](CC2CCNCC2)NC(=O)[C@H](CC(C)(C)C)N(C)C(=O)[C@H](Cc2cccc3ccccc23)NC1=O)C1CCCCC1` [compound 184, Ac-Chg-S-D-C(3)-(1Nal)-(NMe-Tba)-[3-(4-piperidinyl)-Ala]-(7Me-W)-N-C(3)-(aMe-P)-F -D-[D-Lys(DOTA)]-NH2] (Ac-[Chg]SDC[1Nal][NMetBuAla][Ala(piperidin-4-yl)][Trp(7-Me)]NC[αMeP]FD[dK](DOTA)-NH2; disulfide 4-10): > 30 nM; `CC(=O)N[C@H](C(=O)N[C@@H](CO)C(=O)N[C@@H](CC(=O)O)C(=O)N[C@H]1CSSC[C@@H](C(=O)N2CCC[C@@]2(C)C(=O)N[C@@H](Cc2ccccc2)C(=O)N[C@@H](CC(=O)O)C(=O)N[C@H](CCCCNC(=O)CN2CCN(CC(=O)O)CCN(CC(=O)O)CCN(CC(=O)O)CC2)C(N)=O)NC(=O)[C@H](CC(N)=O)NC(=O)[C@H](Cc2c[nH]c3c(C)cccc23)NC(=O)[C@H](CC2CCNCC2)NC(=O)[C@H](C2CCCCC2)N(C)C(=O)[C@H](Cc2cccc3ccccc23)NC1=O)C1CCCCC1` [compound 185, Ac-Chg-S-D-C(3)-(1Nal)-(NMe-Chg)-[3-(4-piperidinyl)-Ala]-(7Me-W)-N-C(3)-(aMe-P)-F -D-[D-Lys(DOTA)]-NH2] (Ac-[Chg]SDC[1Nal][NMeChg][Ala(piperidin-4-yl)][Trp(7-Me)]NC[αMeP]FD[dK](DOTA)-NH2; disulfide 4-10): > 30 nM; `CC(=O)N[C@H](C(=O)N[C@@H](CO)C(=O)N[C@@H](CC(=O)O)C(=O)N[C@H]1C/C=C/C[C@@H](C(=O)N2CCC[C@@]2(C)C(=O)N[C@@H](Cc2ccccc2)C(=O)N[C@@H](CC(=O)O)C(=O)N[C@H](CCCCNC(=O)CN2CCN(CC(=O)O)CCN(CC(=O)O)CCN(CC(=O)O)CC2)C(N)=O)NC(=O)[C@H](CC(N)=O)NC(=O)[C@H](Cc2ccc3ccccc3c2)NC(=O)[C@H](CC2CCNCC2)NC(=O)[C@H](CC(C)(C)C)N(C)C(=O)[C@H](Cc2cccc3ccccc23)NC1=O)C1CCCCC1` [compound 186, Ac-Chg-S-D-AllyG(4)-(1Nal)-(NMe-Tba)-[3-(4-piperidinyl)-Ala]-(2Nal)-N-AllyG(4)-(aMe-P)-F -D-[D-Lys(DOTA)]-NH2] (Ac-[Chg]SD[AllylGly][1Nal][NMetBuAla][Ala(piperidin-4-yl)][2Nal]N[AllylGly][αMeP]FD[dK](DOTA)-NH2; staple (E) 4-10): > 30 nM.

As to `CC(=O)N[C@@H](CC1CCNCC1)C(=O)N[C@@H](CO)C(=O)N[C@@H](CC(=O)O)C(=O)N[C@H]1CC=CC[C@@H](C(=O)N2CCC[C@@]2(C)C(=O)N[C@@H](Cc2ccccc2)C(=O)N[C@@H](CC(=O)O)C(N)=O)NC(=O)[C@H](CC(N)=O)NC(=O)[C@H](Cc2ccc3ccccc3c2)NC(=O)[C@H](Cc2ccc(CNC(=O)CN3CCN(CC(=O)O)CCN(CC(=O)O)CCN(CC(=O)O)CC3)cc2)NC(=O)[C@H](CC(C)(C)C)N(C)C(=O)[C@H](Cc2cccc3ccccc23)NC1=O` [compound 187, Ac-[3-(4-piperidinyl)-Ala]-S-D-AllyG(4)-(1Nal)-(NMe-Tba)-[PAF(DOTA)]-(2Nal)-N-AllyG(4)-(aMe-P)-F -D-CONH2] (Ac-[Ala(piperidin-4-yl)]SD[AllylGly][1Nal][NMetBuAla][Phe(4-CH2NH2)](DOTA)[2Nal]N[AllylGly][αMeP]FD-NH2; staple 4-10 (inferred)), the Kd is > 30 nM.

Regarding `CC(=O)N[C@@H](CO)C(=O)N[C@@H](CC(=O)O)C(=O)N[C@H]1C/C=C/C[C@@H](C(=O)N2CCC[C@@]2(C)C(=O)N[C@@H](Cc2ccccc2)C(=O)N[C@@H](CC(=O)O)C(=O)N[C@H](CCCCNC(=O)CN2CCN(CC(=O)O)CCN(CC(=O)O)CCN(CC(=O)O)CC2)C(N)=O)NC(=O)[C@H](CC(N)=O)NC(=O)[C@H](Cc2ccc3ccccc3c2)NC(=O)[C@H](CC2CCNCC2)NC(=O)[C@H](CC(C)(C)C)N(C)C(=O)[C@H](Cc2cccc3ccccc23)NC1=O` [compound 189, Ac-S-D-AllyG(4)-(1Nal)-(NMe-Tba)-[3-(4-piperidinyl)-Ala]-(2Nal)-N-AllyG(4)-(aMe-P)-F -D-[D-Lys(DOTA)]-NH2] (Ac-SD[AllylGly][1Nal][NMetBuAla][Ala(piperidin-4-yl)][2Nal]N[AllylGly][αMeP]FD[dK](DOTA)-NH2; staple (E) 3-9), the Kd was > 30 nM. The same measure, in the same setting: next, `CC(=O)N[C@@H](CC1CCNCC1)C(=O)N(C)[C@@H](CO)C(=O)N[C@@H](CC(=O)O)C(=O)N[C@H]1C/C=C/C[C@@H](C(=O)N2CCC[C@@]2(C)C(=O)N[C@@H](Cc2ccccc2)C(=O)N[C@@H](CC(=O)O)C(N)=O)NC(=O)[C@H](CC(N)=O)NC(=O)[C@H](Cc2ccc3ccccc3c2)NC(=O)[C@H](Cc2ccc(CNC(=O)CN3CCN(CC(=O)O)CCN(CC(=O)O)CCN(CC(=O)O)CC3)cc2)NC(=O)[C@H](CC(C)(C)C)NC(=O)[C@H](Cc2cccc3ccccc23)NC1=O` [compound 190, Ac-[3-(4-piperidinyl)-Ala]-(NMe-Ser)-D-AllyG(4)-(1Nal)-(t-Bu-Ala)-[PAF(DOTA)]-(2Nal)-N-AllyG(4)-(aMe-P)-F-D-CONH2] (Ac-[Ala(piperidin-4-yl)][NMeS]D[AllylGly][1Nal][tBuAla][Phe(4-CH2NH2)](DOTA)[2Nal]N[AllylGly][αMeP]FD-NH2; staple (E) 4-10): 1.51 nM; `CC(=O)N[C@@H](CC1CCNCC1)C(=O)N[C@@H](CO)C(=O)N[C@@](C)(CC(=O)O)C(=O)N[C@H]1C/C=C/C[C@@H](C(=O)N2CCC[C@@]2(C)C(=O)N[C@@H](Cc2ccccc2)C(=O)N[C@@H](CC(=O)O)C(N)=O)NC(=O)[C@H](CC(N)=O)NC(=O)[C@H](Cc2ccc3ccccc3c2)NC(=O)[C@H](Cc2ccc(CNC(=O)CN3CCN(CC(=O)O)CCN(CC(=O)O)CCN(CC(=O)O)CC3)cc2)NC(=O)[C@H](CC(C)(C)C)NC(=O)[C@H](Cc2cccc3ccccc23)NC1=O` [compound 194, Ac-[3-(4-piperidinyl)-Ala]-S-(aMe-Asp)-AllyG(4)-(1Nal)-(t-Bu-Ala)-[PAF(DOTA)]-(2Nal)-N-AllyG(4)-(aMe-P)-F-D-CONH2] (Ac-[Ala(piperidin-4-yl)]S[αMeD][AllylGly][1Nal][tBuAla][Phe(4-CH2NH2)](DOTA)[2Nal]N[AllylGly][αMeP]FD-NH2; staple (E) 4-10): 0.27 nM; `C[C@@H](NC(=O)CN1CCN(CC(=O)O)CCN(CC(=O)O)CCN(CC(=O)O)CC1)C(=O)N[C@@H](CO)C(=O)N[C@@](C)(CC(=O)O)C(=O)N[C@H]1C/C=C/C[C@@H](C(=O)N2CCC[C@@]2(C)C(=O)N[C@@H](Cc2ccccc2)C(=O)N[C@@H](CC(=O)O)C(N)=O)NC(=O)[C@H](CC(N)=O)NC(=O)[C@H](Cc2ccc3ccccc3c2)NC(=O)[C@H](CC2CCNCC2)NC(=O)[C@H](CC(C)(C)C)NC(=O)[C@H](Cc2cccc3ccccc23)NC1=O` [compound 197, DOTA-(D-Ala)-S-(aMe-Asp)-AllyG(4)-(1Nal)-(t-Bu-Ala)-[3-(4-piperidinyl)-Ala]-(2Nal)-N-AllyG(4)-(aMe-P)-F-D-CONH2] ({DOTA}-[dA]S[αMeD][AllylGly][1Nal][tBuAla][Ala(piperidin-4-yl)][2Nal]N[AllylGly][αMeP]FD-NH2; staple (E) 4-10): 1.66 nM. As for `CC(=O)N[C@@H](CC1CCNCC1)C(=O)N[C@@H](CO)C(=O)N[C@@H](CC(=O)O)C(=O)N[C@H]1C/C=C\C[C@@H](C(=O)N2CCC[C@@]2(C)C(=O)N[C@@H](Cc2ccccc2)C(=O)N[C@@H](CC(=O)O)C(N)=O)NC(=O)[C@H](CC(N)=O)NC(=O)[C@H](Cc2ccc3ccccc3c2)NC(=O)[C@H](Cc2ccc(CNC(=O)CN3CCN(CC(=O)O)CCN(CC(=O)O)CCN(CC(=O)O)CC3)cc2)NC(=O)[C@H](CC(C)(C)C)NC(=O)[C@H](Cc2cccc3ccccc23)NC1=O` [compound 198, Ac-(D-Ala)-S-D-AllyG(4)-(1Nal)-(t-Bu-Ala)-[PAF(DOTA)]-(2Nal)-N-AllyG(4)-(aMe-P)-F-D-CONH2] (Ac-[Ala(piperidin-4-yl)]SD[AllylGly][1Nal][tBuAla][Phe(4-CH2NH2)](DOTA)[2Nal]N[AllylGly][αMeP]FD-NH2; staple (Z) 4-10), the “SPR KD (nM)” value was “heterogenous binding”.
